Laboratory results: patent publication US20230365592A1 (Agios Pharmaceuticals, Inc., priority 2022, published 2023)

Each molecule was assayed against T1, human PAH with the R408W mutation (Homo sapiens, UniProt P00439, R408W) (assay: Cell Based Phenylalanine Flux Assay). Conditions: A375 cells expressing R408W PAH; 24 hrs with compound, then 20 µM sepiapterin and 800 µM 13C9,15N-Phenylalanine for 4 hours; 13C-Tyrosine by LC-MS; average where tested multiple times; read-out: AC50.
T1 construct: expressed in transfected cells
T1 sequence (P00439 1-452 R408W): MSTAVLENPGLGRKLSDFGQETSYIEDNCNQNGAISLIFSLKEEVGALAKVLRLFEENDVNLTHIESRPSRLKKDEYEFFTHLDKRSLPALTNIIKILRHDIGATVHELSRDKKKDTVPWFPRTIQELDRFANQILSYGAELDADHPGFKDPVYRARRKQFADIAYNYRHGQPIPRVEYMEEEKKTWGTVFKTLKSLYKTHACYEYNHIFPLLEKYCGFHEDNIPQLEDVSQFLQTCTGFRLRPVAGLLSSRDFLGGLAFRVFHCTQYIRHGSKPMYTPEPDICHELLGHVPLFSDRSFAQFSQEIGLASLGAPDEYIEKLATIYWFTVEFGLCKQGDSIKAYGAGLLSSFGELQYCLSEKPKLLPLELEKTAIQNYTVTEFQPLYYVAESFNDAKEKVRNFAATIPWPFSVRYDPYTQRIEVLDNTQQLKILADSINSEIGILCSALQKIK
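Note: after compound treatment, cells received sepiapterin plus isotope-labelled Phenylalanine for 4 hours, then labelled Tyrosine in the medium was quantified, 10-point 2-fold dilution series run in duplicate.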

SMILES	AC50
FC(F)c1cccc2cc(C3c4nc[nH]c4CCN3c3ncccn3)nn12 (stereo not shown)	1 to 5 µM
COc1cccn2nc(C3c4nc[nH]c4CCN3C(=O)c3cnn4cc(N(C)C)ccc34)cc12 (stereo not shown) [listing 1 of 2 here]	> 5 µM
COc1cccn2nc(C3c4nc[nH]c4CCN3C(=O)c3cnn4cc(-c5cnn(C)c5)ccc34)cc12 (stereo not shown) [listing 1 of 2 here]	> 5 µM
CN(C)Cc1ccc2c(C(=O)N3CCc4[nH]cnc4C3c3cc4cccc(C(F)F)n4n3)cnn2c1 (stereo not shown) [listing 1 of 2 here]	> 5 µM
FC(F)c1cccn2nc(C3c4nc[nH]c4CCN3c3nc4ccccc4o3)cc12 (stereo not shown)	> 5 µM
O=C(c1nnc(-c2cnn(C(F)(F)F)c2)o1)N1CCc2[nH]cnc2C1c1cc2c(OC(F)(F)F)cccn2n1 (stereo not shown)	1 to 5 µM
FC(F)(F)c1cccn2nc(C3c4nc[nH]c4CCN3c3nc4ccccc4o3)cc12 (stereo not shown)	> 5 µM
FC(F)c1nnc(N2CCc3[nH]cnc3C2c2cc3cccc(Cl)n3n2)o1 (stereo not shown)	1 to 5 µM
Cc1nnc(N2CCc3[nH]cnc3C2c2cc3cccc(F)n3n2)o1 (stereo not shown)	> 5 µM
FC(F)c1nnc(N2CCc3[nH]cnc3C2c2cc3cccc(C(F)(F)F)n3n2)o1 (stereo not shown)	1 to 5 µM
Fc1cccc2cc(C3c4nc[nH]c4CCN3c3nnc(C(F)F)o3)nn12 (stereo not shown)	1 to 5 µM
Fc1cccn2nc(C3c4nc[nH]c4CCN3c3nnc(C4CCC4)o3)cc12 (stereo not shown)	1 to 5 µM
Cc1nnc(N2CCc3[nH]cnc3C2c2cc3c(C(F)(F)F)cccn3n2)o1 (stereo not shown)	1 to 5 µM
Cc1nnc(N2CCc3[nH]cnc3C2c2cc3cccc(C(F)(F)F)n3n2)o1 (stereo not shown)	1 to 5 µM
Cc1nnc(N2CCc3[nH]cnc3C2c2cc3cccc(C)n3n2)o1 (stereo not shown)	1 to 5 µM
CC(C)(C)c1nnc(N2CCc3[nH]cnc3C2c2cc3c(C(F)(F)F)cccn3n2)o1 (stereo not shown)	1 to 5 µM
COc1cccn2nc(C3c4nc[nH]c4CCN3C(=O)c3cnn4cc(N(C)C)ccc34)cc12 (stereo not shown) [listing 2 of 2 here]	1 to 5 µM
O=C(c1cnn2cc(N3CCOCC3)ccc12)N1CCc2[nH]cnc2C1c1cc2c(F)cccn2n1 (stereo not shown)	1 to 5 µM

SMILES	AC50
COc1cccn2nc(C3c4nc[nH]c4CCN3C(=O)c3cnn4cc(N5CCOCC5)ccc34)cc12 (stereo not shown)	> 5 µM
COc1cccn2nc(C3c4nc[nH]c4CCN3C(=O)c3cnn4cc(-c5cnn(C)c5)ccc34)cc12 (stereo not shown) [listing 2 of 2 here]	1 to 5 µM
Cc1cccn2nc(C3c4nc[nH]c4CCN3C(=O)c3cnn4cc(N5CCOCC5)ccc34)cc12 (stereo not shown)	1 to 5 µM
O=C(c1cnn2cc(N3CCOCC3)ccc12)N1CCc2[nH]cnc2C1c1cc2cccc(C(F)(F)F)n2n1 (stereo not shown)	1 to 5 µM
COCc1ccc2c(C(=O)N3CCc4[nH]cnc4C3c3cc4c(C(F)F)cccn4n3)cnn2c1 (stereo not shown)	1 to 5 µM
FC(F)c1cccn2nc(C3c4nc[nH]c4CCN3c3nnc(N4CCOCC4)o3)cc12 (stereo not shown)	> 5 µM
FC(F)(F)c1cccn2nc(C3c4nc[nH]c4CCN3c3nnc(N4CCOCC4)o3)cc12 (stereo not shown)	> 5 µM
Fc1cccn2nc(C3c4nc[nH]c4CCN3c3nnc(N4CCOCC4)o3)cc12 (stereo not shown)	1 to 5 µM
Cc1cccn2nc(C3c4nc[nH]c4CCN3c3nnc(N4CCOCC4)o3)cc12 (stereo not shown)	1 to 5 µM
CN(C)C(=O)c1nnc(N2CCc3[nH]cnc3C2c2cc3c(C(F)F)cccn3n2)o1 (stereo not shown)	1 to 5 µM
COCCc1ccc2c(C(=O)N3CCc4[nH]cnc4C3c3cc4cccc(C(F)(F)F)n4n3)cnn2c1 (stereo not shown)	1 to 5 µM
COCc1ccc2c(C(=O)N3CCc4[nH]cnc4C3c3cc4c(OC)cccn4n3)cnn2c1 (stereo not shown)	1 to 5 µM
O=C(c1cnn2cc(C3CC3)ccc12)N1CCc2[nH]cnc2C1c1cc2cccc(C(F)(F)F)n2n1 (stereo not shown)	1 to 5 µM
COc1ccc2c(C(=O)N3CCc4[nH]cnc4C3c3cc4cccc(C(F)(F)F)n4n3)cnn2c1 (stereo not shown)	1 to 5 µM
CN(C)CCc1ccc2c(C(=O)N3CCc4[nH]cnc4C3c3cc4c(F)cccn4n3)cnn2c1 (stereo not shown)	1 to 5 µM
CN(C)Cc1ccc2c(C(=O)N3CCc4[nH]cnc4C3c3cc4cccc(C(F)F)n4n3)cnn2c1 (stereo not shown) [listing 2 of 2 here]	1 to 5 µM
CN(C)Cc1ccc2c(C(=O)N3CCc4[nH]cnc4C3c3cc4cccc(Cl)n4n3)cnn2c1 (stereo not shown)	1 to 5 µM
Cc1cccn2nc(C3c4nc[nH]c4CCN3C(=O)c3cnn4cc(CCN(C)C)ccc34)cc12 (stereo not shown)	1 to 5 µM

Next, values leading:

AC50	SMILES
> 5 µM	COCc1ncc(C(=O)N2CCc3[nH]cnc3C2c2cc3ccccn3n2)s1 (stereo not shown) [listing 1 of 2 here]
> 5 µM	COc1ccc2c(C(=O)N3CCc4[nH]cnc4C3c3cc4c(OC)cccn4n3)cnn2c1 (stereo not shown) [listing 1 of 2 here]
> 5 µM	COc1ccc2c(C(=O)N3CCc4[nH]cnc4C3c3cc4cccc(C(F)F)n4n3)cnn2c1 (stereo not shown) [listing 1 of 2 here]
> 5 µM	COCc1ccc2c(C(=O)N3CCc4[nH]cnc4C3c3cc4cccc(Cl)n4n3)cnn2c1 (stereo not shown) [listing 1 of 2 here]
> 5 µM	Cc1ccc2c(C(=O)N3CCc4[nH]cnc4C3c3cc4cccc(Cl)n4n3)cnn2c1 (stereo not shown) [listing 1 of 2 here]
> 5 µM	Cc1ccc2c(C(=O)N3CCc4[nH]cnc4C3c3cc4cccc(C)n4n3)cnn2c1 (stereo not shown) [listing 1 of 2 here]
> 5 µM	COCCNc1nnc(C(=O)N2CCc3[nH]cnc3C2c2cc3ccccn3n2)o1 (stereo not shown) [listing 1 of 2 here]
1 to 5 µM	O=C(c1nnc(N2CC(F)C2)o1)N1CCc2[nH]cnc2C1c1cc2ccccn2n1 (stereo not shown)
1 to 5 µM	Fc1cccc2cc(C3c4nc[nH]c4CCN3c3ncccn3)nn12 (stereo not shown)
1 to 5 µM	Cc1cccc2cc(C3c4nc[nH]c4CCN3c3ncc(N)cn3)nn12 (stereo not shown)
1 to 5 µM	Cc1cccc2cc(C3c4nc[nH]c4CCN3c3ncccn3)nn12 (stereo not shown)
1 to 5 µM	COc1cccn2nc(C3c4nc[nH]c4CCN3C(=O)c3nnc(-c4cnccn4)o3)cc12 (stereo not shown)
> 5 µM	COc1cccn2nc(C3c4nc[nH]c4CCN3C(=O)c3nnc(-c4ncccn4)o3)cc12 (stereo not shown)
1 to 5 µM	Cc1ccc2c(C(=O)N3CCc4[nH]cnc4C3c3cc4cccc(C(F)(F)F)n4n3)cnn2c1 (stereo not shown)
1 to 5 µM	COCc1ncc(C(=O)N2CCc3[nH]cnc3C2c2cc3ccccn3n2)s1 (stereo not shown) [listing 2 of 2 here]
1 to 5 µM	CN(C)c1ccc2c(C(=O)N3CCc4[nH]cnc4C3c3cc4cccc(F)n4n3)cnn2c1 (stereo not shown)
> 5 µM	Cc1nnc(CCC(=O)N2CCc3[nH]cnc3C2c2cc3ccccn3n2)s1 (stereo not shown)

AC50	SMILES
1 to 5 µM	COc1cccn2nc(C3c4nc[nH]c4CCN3C(=O)c3nnc(-c4ncccc4F)o3)cc12 (stereo not shown)
1 to 5 µM	COc1ccc2c(C(=O)N3CCc4[nH]cnc4C3c3cc4c(OC)cccn4n3)cnn2c1 (stereo not shown) [listing 2 of 2 here]
1 to 5 µM	COCc1ccc2c(C(=O)N3CCc4[nH]cnc4C3c3cc4cccc(C(F)F)n4n3)cnn2c1 (stereo not shown)
1 to 5 µM	COc1ccc2c(C(=O)N3CCc4[nH]cnc4C3c3cc4cccc(C(F)F)n4n3)cnn2c1 (stereo not shown) [listing 2 of 2 here]
1 to 5 µM	COCc1ccc2c(C(=O)N3CCc4[nH]cnc4C3c3cc4cccc(Cl)n4n3)cnn2c1 (stereo not shown) [listing 2 of 2 here]
> 5 µM	COCCc1ccc2c(C(=O)N3CCc4[nH]cnc4C3c3cc4ccccn4n3)cnn2c1 (stereo not shown)
1 to 5 µM	COCc1ccc2c(C(=O)N3CCc4[nH]cnc4C3c3cc4cccc(C)n4n3)cnn2c1 (stereo not shown)
1 to 5 µM	Cc1cccc2cc(C3c4nc[nH]c4CCN3C(=O)c3cnn4cc(C5CC5)ccc34)nn12 (stereo not shown)
1 to 5 µM	Cc1ccc2c(C(=O)N3CCc4[nH]cnc4C3c3cc4cccc(C(F)F)n4n3)cnn2c1 (stereo not shown)
1 to 5 µM	O=C(c1cnn2ccccc12)N1CCc2[nH]cnc2C1c1cc2cccc(C(F)F)n2n1 (stereo not shown)
1 to 5 µM	Cc1ccc2c(C(=O)N3CCc4[nH]cnc4C3c3cc4cccc(Cl)n4n3)cnn2c1 (stereo not shown) [listing 2 of 2 here]
1 to 5 µM	Cc1ccc2c(C(=O)N3CCc4[nH]cnc4C3c3cc4cccc(C)n4n3)cnn2c1 (stereo not shown) [listing 2 of 2 here]
> 5 µM	COCCNc1nnc(C(=O)N2CCc3[nH]cnc3C2c2cc3ccccn3n2)o1 (stereo not shown) [listing 2 of 2 here]
1 to 5 µM	O=C(c1nnc(NC2CC2)o1)N1CCc2[nH]cnc2C1c1cc2ccccn2n1 (stereo not shown)
1 to 5 µM	CN(C)Cc1ccc2c(C(=O)N3CCc4[nH]cnc4C3c3cc4cccc(F)n4n3)cnn2c1 (stereo not shown)
> 5 µM	CN(C)Cc1nnc(C(=O)N2CCc3[nH]cnc3C2c2cc3ccccn3n2)o1 (stereo not shown)
1 to 5 µM	Cc1ncoc1C(=O)N1CC2(CC2)c2[nH]cnc2C1c1cc2ccccn2n1 (stereo not shown)
